Data from patent US7820623B2 (priority 2006, dated 2010).
Like-named read-outs stand apart in the source and are kept apart here. Bridge positions count the residues as written; N and C are the ends. Square brackets hold non-standard residues; d marks the D form. Peptide text beside a SMILES is read from it. 1Nal = N[C@@H](Cc1cccc2ccccc12)C(=O)O

Experiments:
human Kv1.3 (CHO) = molecular target: T1, human Kv1.3 (CHO) (Homo sapiens, UniProt P22001); experiment: cell-based; format: cell-based
T1 construct: expressed in transfected cells

[1] = test system: thapsigargin-induced IL-2 production in human whole blood; conditions: for IC50: read-out: Analogue Activity (IC50) WB/IL-2
human Kv1.1 (HEK293) = molecular target: T2, human Kv1.1 (HEK293) (Homo sapiens, UniProt Q09470); experiment: cell-based
T2 construct: expressed in transfected cells; host or cells: HEK293

[2] = test system: thapsigargin-induced IFN-g production in human whole blood; format: cell-based; conditions: for IC50: read-out: Analogue Activity (IC50) WB/IFNg
human Kv1.3 [3] = molecular target: T3, human Kv1.3 (Homo sapiens, UniProt P22001); experiment: cell-based
human Kv1.3 [4] = molecular target: T3, human Kv1.3; format: cell-based; set-up: expressed in transfected cells
[5] = read-out: IC50 for block of the outward potassium current

T1 sequence (P22001 whole entry): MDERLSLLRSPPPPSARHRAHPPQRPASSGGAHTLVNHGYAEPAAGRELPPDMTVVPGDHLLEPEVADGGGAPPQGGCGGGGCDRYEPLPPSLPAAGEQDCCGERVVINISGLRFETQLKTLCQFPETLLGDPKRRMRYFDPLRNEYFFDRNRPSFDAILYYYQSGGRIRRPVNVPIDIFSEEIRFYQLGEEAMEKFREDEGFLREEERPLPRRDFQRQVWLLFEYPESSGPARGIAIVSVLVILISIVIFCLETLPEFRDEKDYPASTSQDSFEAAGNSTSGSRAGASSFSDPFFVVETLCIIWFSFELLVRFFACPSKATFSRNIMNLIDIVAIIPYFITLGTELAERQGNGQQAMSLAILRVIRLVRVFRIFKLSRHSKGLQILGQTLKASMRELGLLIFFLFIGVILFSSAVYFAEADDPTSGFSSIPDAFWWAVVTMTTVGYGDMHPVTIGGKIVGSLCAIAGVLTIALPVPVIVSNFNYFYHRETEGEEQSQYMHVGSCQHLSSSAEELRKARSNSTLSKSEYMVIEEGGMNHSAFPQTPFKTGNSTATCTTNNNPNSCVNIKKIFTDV
T3 sequence (P22001 whole entry): as above
T2 sequence (Q09470 whole entry): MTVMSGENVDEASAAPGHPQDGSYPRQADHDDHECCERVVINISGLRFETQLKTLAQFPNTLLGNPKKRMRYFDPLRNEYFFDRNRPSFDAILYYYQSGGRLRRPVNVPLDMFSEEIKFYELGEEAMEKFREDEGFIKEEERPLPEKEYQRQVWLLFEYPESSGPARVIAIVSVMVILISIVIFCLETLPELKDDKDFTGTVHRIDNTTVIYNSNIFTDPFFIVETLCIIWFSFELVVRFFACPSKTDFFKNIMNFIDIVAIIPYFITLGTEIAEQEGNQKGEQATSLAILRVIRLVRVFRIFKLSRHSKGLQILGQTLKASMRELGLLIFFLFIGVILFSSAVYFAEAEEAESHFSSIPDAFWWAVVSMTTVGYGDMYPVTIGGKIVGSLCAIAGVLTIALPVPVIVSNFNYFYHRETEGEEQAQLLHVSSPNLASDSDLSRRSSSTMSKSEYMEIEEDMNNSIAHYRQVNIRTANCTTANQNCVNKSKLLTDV

E. coli-derived Shk[1-35]-L-Fc
IC50 (human Kv1.3 (CHO); read-out: Kv1.3 IC50 by IWQ): 2.4 nM

CC[C@H](C)[C@@H]1NC(=O)[C@H](CCCCN)NC(=O)[C@@H](NC(=O)[C@H](CCCCN)NC(=O)[C@@H](NC(=O)[C@H](CC(N)=O)NC(=O)[C@@H](NC(=O)[C@@H](NC(=O)[C@@H](NC(=O)CN)C(C)C)[C@@H](C)CC)[C@@H](C)CC)C(C)C)CSSC[C@@H]2NC(=O)[C@H](CCCCN)NC(=O)CNC(=O)[C@H](Cc3ccccc3)NC(=O)[C@H](CCCNC(=N)N)NC(=O)[C@H](CCSC)NC(=O)CNC(=O)[C@H](C)NC(=O)[C@H](CCCCN)NC(=O)[C@H](CCCCN)NC(=O)[C@@H]3CSSC[C@@H](C(=O)N[C@H](C(=O)N4CCC[C@H]4C(=O)N[C@@H](CCCCN)C(=O)O)[C@@H](C)O)NC(=O)[C@H](Cc4c[nH]cn4)NC(=O)[C@H](CSSC[C@H](NC(=O)[C@H](CCC(N)=O)NC(=O)[C@H](CCCNC(=N)N)NC(=O)[C@H](CO)NC1=O)C(=O)N[C@@H](CC(C)C)C(=O)N[C@@H](CCC(=O)O)C(=O)N1CCC[C@H]1C(=O)N3)NC(=O)[C@H](Cc1cccc3ccccc13)NC(=O)CNC(=O)[C@H](CC(N)=O)NC(=O)[C@H](CCSC)NC2=O [K32Nal] (H-GVIINVKCKISRQCLEPCKKAGMRFGKCMNG[1Nal]CHCTPK-OH; disulfide 8-28, 14-33, 18-35)
IC50 (human Kv1.3 (CHO)): 0.0261 nM | IC50 [1]: 0.134 nM | IC50 (human Kv1.1 (HEK293)): 0.00191 nM | IC50 [2]: 0.196 nM

CC[C@H](C)[C@@H]1NC(=O)[C@H](CCCCN)NC(=O)[C@@H](NC(=O)[C@H](CCCCN)NC(=O)[C@@H](NC(=O)[C@H](CC(N)=O)NC(=O)[C@@H](NC(=O)[C@@H](NC(=O)[C@@H](NC(=O)CN)C(C)C)[C@@H](C)CC)[C@@H](C)CC)C(C)C)CSSC[C@@H]2NC(=O)[C@H](CCCCN)NC(=O)CNC(=O)[C@H](Cc3ccccc3)NC(=O)[C@H](CCCNC(=N)N)NC(=O)[C@H](CCSC)NC(=O)CNC(=O)[C@H](C)NC(=O)[C@H](CCCCN)NC(=O)[C@H](CCCCN)NC(=O)[C@@H]3CSSC[C@@H](C(=O)N[C@H](C(=O)N4CCC[C@H]4C(=O)N[C@@H](CCCCN)C(=O)O)[C@@H](C)O)NC(=O)[C@H](Cc4c[nH]cn4)NC(=O)[C@H](CSSC[C@H](NC(=O)[C@H](CCC(N)=O)NC(=O)[C@H](CCCNC(=N)N)NC(=O)[C@H](CCC(=O)O)NC1=O)C(=O)N[C@@H](CC(C)C)C(=O)N[C@@H](CCC(=O)O)C(=O)N1CCC[C@H]1C(=O)N3)NC(=O)[C@H](CCCCN)NC(=O)CNC(=O)[C@H](CC(N)=O)NC(=O)[C@H](CCSC)NC2=O [S11E] (H-GVIINVKCKIERQCLEPCKKAGMRFGKCMNGKCHCTPK-OH; disulfide 8-28, 14-33, 18-35)
IC50 (human Kv1.3 (CHO)): > 3.33 nM | IC50 (human Kv1.1 (HEK293)): > 3.33 nM

CC[C@H](C)[C@@H]1NC(=O)[C@@H](NC(=O)[C@@H](N)CO)CSSC[C@@H](C(=O)O)NC(=O)[C@H]([C@@H](C)O)NC(=O)CNC(=O)[C@@H]2CSSC[C@@H]3NC(=O)[C@H](CCC(N)=O)NC(=O)[C@H](Cc4ccccc4)NC(=O)[C@H](C)NC(=O)[C@H]([C@@H](C)O)NC(=O)[C@H](CSSC[C@H](NC(=O)[C@H](Cc4ccccc4)NC(=O)[C@H](CO)NC(=O)[C@H](CC(C)C)NC(=O)[C@H](CCCNC(=N)N)NC(=O)[C@H](Cc4ccc(O)cc4)NC(=O)[C@H](CCCCN)NC(=O)[C@H](CCSC)NC(=O)[C@H](CO)NC(=O)[C@H](Cc4c[nH]cn4)NC(=O)[C@H](CCCCN)NC3=O)C(=O)N[C@@H](CCCNC(=N)N)C(=O)N[C@@H](CCCCN)C(=O)N[C@@H]([C@@H](C)O)C(=O)N2)NC(=O)[C@H](CCCNC(=N)N)NC(=O)[C@H](CO)NC(=O)[C@H](CCCCN)NC(=O)[C@@H]2CCCN2C(=O)[C@H]([C@@H](C)CC)NC(=O)[C@H]([C@@H](C)O)NC(=O)[C@H](CC(=O)O)NC1=O [ShK[2-35]] (H-SCIDTIPKSRCTAFQCKHSMKYRLSFCRKTCGTC-OH; disulfide 2-34, 11-27, 16-31)
IC50 (human Kv1.3 [3]): 0.049 ± 0.005 nM

CC[C@H](C)[C@@H]1NC(=O)[C@H](CCCCN)NC(=O)[C@@H](NC(=O)[C@H](CCCCN)NC(=O)[C@@H](NC(=O)[C@H](CC(N)=O)NC(=O)[C@@H](NC(=O)[C@@H](NC(=O)[C@@H](NC(=O)CN)C(C)C)[C@@H](C)CC)[C@@H](C)CC)C(C)C)CSSC[C@@H]2NC(=O)[C@H](CCCCN)NC(=O)CNC(=O)[C@H](Cc3ccccc3)NC(=O)[C@H](CCCNC(=N)N)NC(=O)[C@H](CCSC)NC(=O)CNC(=O)[C@H](C)NC(=O)[C@H](CCCCN)NC(=O)[C@H](CCCCN)NC(=O)[C@@H]3CSSC[C@@H](C(=O)N[C@H](C(=O)N4CCC[C@H]4C(=O)N[C@@H](CCCCN)C(=O)O)[C@@H](C)O)NC(=O)[C@H](Cc4c[nH]cn4)NC(=O)[C@H](CSSC[C@H](NC(=O)[C@H](CCC(N)=O)NC(=O)[C@H](CCCNC(=N)N)NC(=O)[C@H](CO)NC1=O)C(=O)N[C@@H](CC(C)C)C(=O)N[C@@H](CCC(=O)O)C(=O)N1CCC[C@H]1C(=O)N3)NC(=O)[C@H](CCCCN)NC(=O)CNC(=O)[C@H](Cc1cccc3ccccc13)NC(=O)[C@H](CCSC)NC2=O [N30Nal] (H-GVIINVKCKISRQCLEPCKKAGMRFGKCM[1Nal]GKCHCTPK-OH; disulfide 8-28, 14-33, 18-35)
IC50 (human Kv1.3 (CHO)): > 3.33 nM | IC50 [2]: 37 nM

Fc-L-KTX1: Fc-linker fusion of Kaliotoxin1 (KTX1)
block of human Kv1.3 current (human Kv1.3 [3]): blocked the human Kv1.3 current in a dose-dependent fashion

Fc-L5-ShK[2-35]: human IgG1 Fc fused via 5 amino acid linker to ShK[2-35]
IC50 (human Kv1.3 [3]; [5]): 0.1 nM

E. coli-derived Fc-L-ShK[2-35]
IC50 (human Kv1.3 (CHO); read-out: Kv1.3 IC50 by IWQ): 2.8 nM | IC50 (human Kv1.3 [3]; read-out: Kv1.3 IC50 by WCVC): 1.3 nM

E. coli-derived Fc-L-OSK1
IC50 (human Kv1.3 [3]; read-out: Kv1.3 IC50 by WCVC): 3.2 nM

CC[C@H](C)[C@@H]1NC(=O)[C@H](CCCCN)NC(=O)[C@@H](NC(=O)[C@H](CCCCN)NC(=O)[C@@H](NC(=O)[C@H](CC(N)=O)NC(=O)[C@@H](NC(=O)[C@@H](NC(=O)[C@@H](NC(=O)CN)C(C)C)[C@@H](C)CC)[C@@H](C)CC)C(C)C)CSSC[C@@H]2NC(=O)[C@H](CCCCN)NC(=O)CNC(=O)[C@H](Cc3ccccc3)NC(=O)[C@H](CCCNC(=N)N)NC(=O)[C@H](CCSC)NC(=O)CNC(=O)[C@H](C)NC(=O)[C@H](CCCCN)NC(=O)[C@H](CCCCN)NC(=O)[C@@H]3CSSC[C@@H](C(=O)N[C@H](C(=O)N4CCC[C@H]4C(=O)N[C@@H](CCCCN)C(=O)O)[C@@H](C)O)NC(=O)[C@H](Cc4c[nH]cn4)NC(=O)[C@H](CSSC[C@H](NC(=O)[C@H](CCC(N)=O)NC(=O)[C@H](CCCNC(=N)N)NC(=O)[C@H](CO)NC1=O)C(=O)N[C@@H](CC(C)C)C(=O)N[C@@H](CCC(=O)O)C(=O)N1CCC[C@H]1C(=O)N3)NC(=O)[C@H](CCCCN)NC(=O)CNC(=O)[C@H](CC(N)=O)NC(=O)[C@H](C)NC2=O [OSK1[Ala-29]] (H-GVIINVKCKISRQCLEPCKKAGMRFGKCANGKCHCTPK-OH; disulfide 8-28, 14-33, 18-35)
inhibition of Kv1.3 current and selectivity over Kv1.1 by IonWorks (human Kv1.3 (CHO)): potent inhibition of the Kv1.3 current and improved selectivity over Kv1.1 | potency relative to cyclosporin A in blocking the cytokine response [1]: several orders of magnitude more potent | IC50 (human Kv1.3 [4]; read-out: IC50 on CHO/Kv1.3): 0.033 nM

E. coli-derived ShK[2-35]-L-Fc
IC50 (human Kv1.3 (CHO); read-out: Kv1.3 IC50 by IWQ): 4.9 nM

CC[C@H](C)[C@@H]1NC(=O)[C@H](CCCCN)NC(=O)[C@@H](NC(=O)[C@H](CCCCN)NC(=O)[C@@H](NC(=O)[C@H](CC(N)=O)NC(=O)[C@@H](NC(=O)[C@@H](NC(=O)[C@@H](NC(=O)CN)C(C)C)[C@@H](C)CC)[C@@H](C)CC)C(C)C)CSSC[C@@H]2NC(=O)[C@H](CCCCN)NC(=O)CNC(=O)[C@H](Cc3ccccc3)NC(=O)[C@H](CCCNC(=N)N)NC(=O)[C@H](CCSC)NC(=O)CNC(=O)[C@H](C)NC(=O)[C@H](CCCCN)NC(=O)[C@H](CCCCN)NC(=O)[C@@H]3CSSC[C@@H](C(=O)N[C@H](C(=O)N[C@@H](CCC(=O)O)C(=O)N[C@@H](CCCCN)C(=O)O)[C@@H](C)O)NC(=O)[C@H](Cc4c[nH]cn4)NC(=O)[C@H](CSSC[C@H](NC(=O)[C@H](CCC(N)=O)NC(=O)[C@H](CCCNC(=N)N)NC(=O)[C@H](CO)NC1=O)C(=O)N[C@@H](CC(C)C)C(=O)N[C@@H](CCC(=O)O)C(=O)N1CCC[C@H]1C(=O)N3)NC(=O)[C@H](CCCCN)NC(=O)CNC(=O)[C@H](CC(N)=O)NC(=O)[C@H](CCSC)NC2=O [P37E] (H-GVIINVKCKISRQCLEPCKKAGMRFGKCMNGKCHCTEK-OH; disulfide 8-28, 14-33, 18-35)
IC50 [1]: 0.239 nM | Kv1.3 Selectivity (= Kv1.1/Kv.3 IC50) (human Kv1.3 [4]): 65 | IC50 [2]: 1.6 nM

Fc-L10-ShK[2-35]: human IgG1 Fc fused via 10 amino acid linker to ShK[2-35]
stability in whole blood [1]: stable in whole blood | thapsigargin-induced IL-2 production in human whole blood [1]: suppressed | times more potent than cyclosporine A in blocking IL-2 production (IC50) [1]: more than 200 times | thapsigargin-induced IFN-g production in human whole blood [2]: suppressed | IC50 (human Kv1.3 [3]; [5]): 0.115 ± 0.018 nM

E. coli-derived Fc-L-ShK[1-35]
IC50 (human Kv1.3 [3]; read-out: Kv1.3 IC50 by WCVC): 1.4 nM
